Article PMC9415947 (Pharmaceuticals, 2022)

Tests used:
PI3Kδ = biological target: T1, PI3Kδ (Homo sapiens, UniProt O00329); experiment: In vitro PI3K inhibition assay (ADP-Glo kinase assay), PI3Kδ; format: biochemical; settings: mean of two independent experiments
T1 construct: purchased Merck Millipore
Description: (§1) All compounds were tested in a biochemical assay that measured the inhibition of phosphatidylinositol […] production by PI3K isoforms using the ADP-Glo kinase assay (Promega). In addition, the effects of synthesized compounds on B cell proliferation were measured.
(§2) The potency and selectivity of compounds were assessed by measuring the ability of PI3K kinases to convert ATP to ADP during an enzymatic reaction in the presence of decreasing doses of tested compounds. The experiments were carried out using the ADP-Glo kinase assay kit (Promega), according to the manufacturer’s protocol. PI3Kα, PI3Kβ, PI3Kδ, and PI3Kγ have been purchased from Merck Millipore and phosphoinositol-4,5-bisphosphate (PIP2) lipid vesicles with phosphoserine from ThermoFisher Scientific were used as a substrate in the enzymatic reaction.
(§3) After the reaction, the ADP-Glo reagent and the kinase detection reagent were added sequentially with 40 min of incubation (25 °C, 600 rpm) after adding each reagent. Finally, the luminescence intensity was measured and the IC50 was calculated using GraphPad Prism 7 software. The presented results are the mean value of IC50 from at least two independent experiments.

PI3Kγ = biological target: T2, PI3Kγ (Homo sapiens, UniProt P48736); experiment: In vitro PI3K inhibition assay (ADP-Glo kinase assay), PI3Kγ; format: biochemical; settings: for IC50: mean of two independent experiments; for Fold Selectivity γ/δ: ratio IC50 PI3Kγ / IC50 PI3Kδ
T2 construct: purchased Merck Millipore
T2 sequence (P48736 whole entry): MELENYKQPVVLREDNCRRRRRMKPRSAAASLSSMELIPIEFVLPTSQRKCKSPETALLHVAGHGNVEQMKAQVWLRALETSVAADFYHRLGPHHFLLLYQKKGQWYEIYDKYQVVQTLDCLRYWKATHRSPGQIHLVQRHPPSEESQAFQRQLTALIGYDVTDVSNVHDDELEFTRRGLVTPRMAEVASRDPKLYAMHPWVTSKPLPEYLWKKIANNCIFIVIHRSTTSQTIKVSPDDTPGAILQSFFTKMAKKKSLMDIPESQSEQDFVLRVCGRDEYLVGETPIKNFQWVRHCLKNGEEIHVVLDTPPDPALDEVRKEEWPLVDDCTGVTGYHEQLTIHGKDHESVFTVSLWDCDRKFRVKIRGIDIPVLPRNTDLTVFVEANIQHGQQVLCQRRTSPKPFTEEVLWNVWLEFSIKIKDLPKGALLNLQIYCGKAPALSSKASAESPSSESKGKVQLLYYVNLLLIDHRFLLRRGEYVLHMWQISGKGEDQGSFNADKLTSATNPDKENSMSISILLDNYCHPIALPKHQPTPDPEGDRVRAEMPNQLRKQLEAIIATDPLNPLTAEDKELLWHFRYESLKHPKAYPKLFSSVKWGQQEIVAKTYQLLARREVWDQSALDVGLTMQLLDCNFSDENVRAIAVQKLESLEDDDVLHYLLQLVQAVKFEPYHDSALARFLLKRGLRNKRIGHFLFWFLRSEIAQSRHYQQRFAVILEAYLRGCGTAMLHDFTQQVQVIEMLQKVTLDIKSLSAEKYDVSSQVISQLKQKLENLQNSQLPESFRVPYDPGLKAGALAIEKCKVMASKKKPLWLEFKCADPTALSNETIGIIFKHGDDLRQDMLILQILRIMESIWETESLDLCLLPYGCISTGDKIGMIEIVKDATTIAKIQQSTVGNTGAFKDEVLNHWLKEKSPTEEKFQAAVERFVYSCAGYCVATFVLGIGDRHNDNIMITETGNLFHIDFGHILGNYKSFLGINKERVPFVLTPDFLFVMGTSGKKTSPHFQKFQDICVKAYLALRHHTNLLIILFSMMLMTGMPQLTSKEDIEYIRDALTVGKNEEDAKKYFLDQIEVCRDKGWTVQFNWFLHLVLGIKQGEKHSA
Description: as §1, §2, §3

T1 sequence (O00329 whole entry, looked up): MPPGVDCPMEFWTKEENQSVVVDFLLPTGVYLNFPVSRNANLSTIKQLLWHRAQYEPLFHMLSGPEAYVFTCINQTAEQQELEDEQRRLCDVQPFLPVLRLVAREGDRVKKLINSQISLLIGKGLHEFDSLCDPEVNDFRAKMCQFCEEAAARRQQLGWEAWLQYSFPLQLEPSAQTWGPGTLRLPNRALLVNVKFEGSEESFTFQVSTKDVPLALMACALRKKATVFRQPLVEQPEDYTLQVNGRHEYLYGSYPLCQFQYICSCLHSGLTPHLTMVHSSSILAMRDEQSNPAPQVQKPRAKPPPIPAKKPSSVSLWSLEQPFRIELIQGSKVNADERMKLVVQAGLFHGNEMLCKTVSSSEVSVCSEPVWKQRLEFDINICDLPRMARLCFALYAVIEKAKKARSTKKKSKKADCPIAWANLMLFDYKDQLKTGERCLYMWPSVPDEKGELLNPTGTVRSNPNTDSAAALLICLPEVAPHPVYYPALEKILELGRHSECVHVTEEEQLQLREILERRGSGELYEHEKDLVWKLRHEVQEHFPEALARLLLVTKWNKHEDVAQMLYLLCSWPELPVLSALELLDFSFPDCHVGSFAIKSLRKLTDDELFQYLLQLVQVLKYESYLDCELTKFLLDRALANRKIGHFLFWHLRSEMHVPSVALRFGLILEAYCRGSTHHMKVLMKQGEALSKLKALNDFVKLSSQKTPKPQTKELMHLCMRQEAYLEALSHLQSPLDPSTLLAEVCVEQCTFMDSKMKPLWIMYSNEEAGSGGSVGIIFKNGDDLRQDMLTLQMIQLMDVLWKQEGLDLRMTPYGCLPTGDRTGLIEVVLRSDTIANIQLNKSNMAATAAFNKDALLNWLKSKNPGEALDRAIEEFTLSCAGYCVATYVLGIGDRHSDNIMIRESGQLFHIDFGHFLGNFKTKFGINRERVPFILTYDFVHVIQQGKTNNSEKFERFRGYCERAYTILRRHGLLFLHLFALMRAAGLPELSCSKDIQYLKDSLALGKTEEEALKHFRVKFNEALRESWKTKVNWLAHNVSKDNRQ

Row | Compound | IC50 (PI3Kδ) [nM] | IC50 (PI3Kγ) [nM] | Fold Selectivity γ/δ (PI3Kγ)
1 | O=C(c1cc2nc(-n3c(C(F)F)nc4ccccc43)cc(N3CCOCC3)n2n1)N1CCN(C(=O)C2CC2)CC1 [Compound 43, 1-[2-(4-cyclopropanecarbonylpiperazine-1-carbonyl)-7-(morpholin-4-yl)pyrazolo[1,5-a]pyrimidin-5-yl]-2-(difluoromethyl)-1H-1,3-benzimidazole] | 63 | 3830 | 61
2 | O=C(c1cc2nc(-n3c(C(F)F)nc4ccccc43)cc(N3CCOCC3)n2n1)N1CCCC1CO (stereo not drawn) [Compound 44, (1-{5-[2-(difluoromethyl)-1H-1,3-benzodiazol-1-yl]-7-(morpholin-4-yl)pyrazolo[1,5-a]pyrimidine-2-carbonyl}pyrrolidin-2-yl)methanol] | 459 | 2020 | 4.4
3 | NC1CCN(C(=O)c2cc3nc(-n4c(C(F)F)nc5ccccc54)cc(N4CCOCC4)n3n2)C1 (stereo not drawn) [Compound 45, 1-{5-[2-(difluoromethyl)-1H-1,3-benzodiazol-1-yl]-7-(morpholin-4-yl)pyrazolo[1,5-a]pyrimidine-2-carbonyl}pyrrolidin-3-amine] | 1700 | 23300 | 14
4 | O=C(c1cc2nc(-n3c(C(F)F)nc4ccccc43)cc(N3CCOCC3)n2n1)N1CCOCC1 [Compound 46, 2-(difluoromethyl)-1-[7-(morpholin-4-yl)-2-(morpholine-4-carbonyl)pyrazolo[1,5-a]pyrimidin-5-yl]-1H-1,3-benzimidazole] | 226 | 8540 | 38
5 | O=C(c1cc2nc(-n3c(C(F)F)nc4ccccc43)cc(N3CCOCC3)n2n1)N1CCC(F)(F)CC1 [Compound 47, 2-(difluoromethyl)-1-[2-(4,4-difluoropiperidine-1-carbonyl)-7-(morpholin-4-yl)pyrazolo[1,5-a]pyrimidin-5-yl]-1H-1,3-benzimidazole] | 801 | 35800 | 45
6 | NC(=O)C1CCN(C(=O)c2cc3nc(-n4c(C(F)F)nc5ccccc54)cc(N4CCOCC4)n3n2)CC1 [Compound 48, 1-{5-[2-(difluoromethyl)-1H-1,3-benzimidazol-1-yl]-7-(morpholin-4-yl)pyrazolo[1,5-a]pyrimidine-2-carbonyl}piperidine-4-carboxamide] | 314 | 2790 | 9
7 | CC1(O)CCN(C(=O)c2cc3nc(-n4c(C(F)F)nc5ccccc54)cc(N4CCOCC4)n3n2)CC1 [Compound 49, 1-{5-[2-(difluoromethyl)-1H-1,3-benzimidazol-1-yl]-7-(morpholin-4-yl)pyrazolo[1,5-a]pyrimidine-2-carbonyl}-4-methylpiperidin-4-ol] | 213 | 1820 | 8.5
8 | O=C(c1cc2nc(-n3c(C(F)F)nc4ccccc43)cc(N3CCOCC3)n2n1)N1CCC(CO)CC1 [Compound 50, (1-{5-[2-(difluoromethyl)-1H-1,3-benzimidazol-1-yl]-7-(morpholin-4-yl)pyrazolo[1,5-a]pyrimidine-2-carbonyl}piperidin-4-yl)methanol] | 90 | 1780 | 20
9 | N#CC1CCN(C(=O)c2cc3nc(-n4c(C(F)F)nc5ccccc54)cc(N4CCOCC4)n3n2)CC1 [Compound 51, 1-{5-[2-(difluoromethyl)-1H-1,3-benzimidazol-1-yl]-7-(morpholin-4-yl)pyrazolo[1,5-a]pyrimidine-2-carbonyl}piperidine-4-carbonitrile] | 344 | 1630 | 4.7
10 | O=C(c1cc2nc(-n3c(C(F)F)nc4ccccc43)cc(N3CCOCC3)n2n1)N1CCC(N2CCOCC2)CC1 [Compound 52, 2-(difluoromethyl)-1-[7-(morpholin-4-yl)-2-[4-(morpholin-4-yl)piperidine-1-carbonyl]pyrazolo[1,5-a]pyrimidin-5-yl]-1H-1,3-benzimidazole] | 92 | 5950 | 65
